The source made the active and inactive calls.
Legend:
SUMO-activating enzyme [1] = target: T1, SUMO-activating enzyme (Homo sapiens, UniProt Q9UBT2); test: blockers of SAE1/SAE2–UBC9 SUMO transfer – biochemical, HTRF, uHTS, primary screen (AID 2006); assay type: protein-complex assay
INS1 = test: INS-1E survival protection against cytokine death – cell-based, luminescence, retest, dose response (AID 449756); assay type: functional; settings: Rattus norvegicus;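 further: cell death triggered by IL-1 beta plus TNF-alpha plus IFN-gamma mixture; protective hits raise ATP signal compared with cytokine alone wells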
Albumin = Albumin (Bos taurus, UniProt P02769); test: Counterscreen for inhibitors of T-cell receptor (TCR)-CD3 interaction: Fluorescence-based biochemical high throughput dose response assay to identify inhibitors of T-cell receptor (TCR)-CD3 interaction using a TAMRA-labeled BSA probe.; assay type: functional
SUMO-activating enzyme [2] = target: T1, SUMO-activating enzyme; test: blockers of UBC9-mediated SUMO conjugation – biochemical, AlphaScreen, SUMOylation inhibitor project, confirmation (AID 2018); assay type: functional
Streptococcus = test: GAS UMAA2166 growth inhibition – luminescence, BacTiterGlo, counter-screen for streptokinase expression inhibitor project, dose response (AID 1915); assay type: functional, organism-based;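 further: potency for reduction of bacterial viability or growth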
[3] = test system: Streptococcus sp. 'group A'; test: Streptococcus pyogenes SK(-)GAS viability under kanamycin – luminescence, BacTiterGlo, confirmation, counter-screen for streptokinase expression inhibitor project, dose response (AID 1900); assay type: functional, organism-based
cells [4] = assay type: functional, cell-based
cells [5] = assay type: functional, cell-based; remark: listed apart in the source
[6] = Luminescence Cell-Based Dose Retest to Confirm Inhibitors of Cancer Stem Cells. [Related pubchem assays (depositor defined):AID2717, AID2721]; assay type: functional; settings: Homo sapiens
Troponin, cardiac muscle = Troponin, cardiac muscle (Homo sapiens, UniProt P19429+P45379+P63316); test: Fluorescence-based biochemical high throughput dose response assay for activators of the calcium sensitivity of cardiac Regulated Thin Filaments (RTF). [Related pubchem assays (depositor defined):AID493008, AID493018, AID504382, AID504383]; assay type: protein-complex assay
[7] = target: T2, Runt-related transcription factor 1/Core-binding factor subunit beta (Homo sapiens, UniProt Q01196+Q13951); test: disruptors of Runt domain/CBFb-SMMHC interaction – biochemical, FRET, Cerulean-Runt, Venus-CBFb-SMMHC, uHTS, […] (AID 1434); assay type: protein assay
[8] = target: T2, Runt-related transcription factor 1/Core-binding factor subunit beta; test: Runt domain/CBFb-SMMHC interaction disruptors – biochemical, TR-FRET (AID 1438); assay type: protein assay
[9] = target: T3, Zinc finger protein mex-5 (Caenorhabditis elegans, UniProt Q9XUB2); test: potency of MEX-5 RNA-binding blockers – biochemical, C. elegans, fluorescence polarization, dose response (AID 1960)
T3 sequence (Q9XUB2 whole entry): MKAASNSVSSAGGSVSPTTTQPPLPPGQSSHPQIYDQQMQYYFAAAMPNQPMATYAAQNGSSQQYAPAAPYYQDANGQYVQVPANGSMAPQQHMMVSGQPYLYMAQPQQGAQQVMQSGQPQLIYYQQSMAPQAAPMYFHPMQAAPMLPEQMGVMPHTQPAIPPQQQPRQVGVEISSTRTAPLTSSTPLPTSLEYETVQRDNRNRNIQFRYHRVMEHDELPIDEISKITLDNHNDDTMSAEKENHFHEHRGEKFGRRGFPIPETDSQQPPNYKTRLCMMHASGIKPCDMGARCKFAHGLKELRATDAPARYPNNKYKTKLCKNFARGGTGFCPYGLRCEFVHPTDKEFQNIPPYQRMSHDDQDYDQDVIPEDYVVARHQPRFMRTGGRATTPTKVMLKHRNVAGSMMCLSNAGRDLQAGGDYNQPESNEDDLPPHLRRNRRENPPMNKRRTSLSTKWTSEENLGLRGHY

[10] = target: T4, RNA-binding protein pos-1 (Caenorhabditis elegans, UniProt G5EF15); test: disruptors of C. elegans POS-1 RNA interaction – biochemical, fluorescence polarization, dose response (AID 1964);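 further: purified POS-1 fused to maltose binding protein made in E. coli; potency of compounds blocking POS-1 binding to fluorescent RNA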
T4 sequence (G5EF15 whole entry): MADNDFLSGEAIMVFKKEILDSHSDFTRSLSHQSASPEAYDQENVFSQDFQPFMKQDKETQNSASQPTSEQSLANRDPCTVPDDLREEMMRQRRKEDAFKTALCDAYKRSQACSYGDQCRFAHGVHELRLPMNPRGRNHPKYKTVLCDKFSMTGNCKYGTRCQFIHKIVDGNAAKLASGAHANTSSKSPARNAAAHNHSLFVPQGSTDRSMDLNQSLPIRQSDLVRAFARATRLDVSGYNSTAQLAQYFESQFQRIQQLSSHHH

Ion channel NompC = Ion channel NompC (Danio rerio, UniProt Q7T1G6); test: Dose response cell-based high-throughput screening assay for agonists of the transient receptor potential channel N1 (TRPN1). [Related pubchem assays (depositor defined):AID1424, AID1448]; assay type: functional
Mucolipin-3 = Mucolipin-3 (Homo sapiens, UniProt Q8TDD5); test: Fluorescence counterscreen assay for […] agonists: dose response cell-based high-throughput screening assay to identify agonists of the transient receptor potential channel ML3 (TRPML3). [Related pubchem assays: 1424, 1448 ]; assay type: functional
[11] = loss of viability in HepG2 cells – cell-based, CellTiter-Glo, cherry-picked, cytotoxicity control for Shn3 inhibitor project, dose response (AID 624134); assay type: functional
BJ [12] = test: cells; assay type: functional, cell-based; settings: Homo sapiens
[13] = DRD fibroblast viability loss – cell-based, non-viral oncogenic, luminescence, dose response (AID 1934); assay type: functional; settings: Homo sapiens
[14] = Trypanosoma cruzi growth suppression in host cells – NIH3T3 host cells, beta-gal luminescence, confirmation (AID 2044); assay type: functional, cell-based;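 further: intracellular parasites grown in NIH/3T3 mouse fibroblasts as host cells; luminescent beta-galactosidase reporter signal from transgenic T. cruzi replicating inside host cells; inhibitors lower the luminescence signal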
[15] = reduction of Shn3 3'UTR-driven luciferase in osteoblasts – cell-based, Clone20 osteoblasts, firefly luciferase, cherry-picked, dose response (AID 624132); assay type: functional;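 further: firefly luciferase luminescence from reporter carrying the Shn3 3'UTR in osteoblasts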
cells [16] = assay type: functional
[17] = non-specific 3'UTR reporter inhibition in Clone20-Shn3RL – cell-based, Renilla luciferase, cherry-picked, counter-screen for Shn3 inhibitor project, dose response (AID 624133); assay type: functional
[18] = NIH3T3 cell viability loss – ATP luminescence, mouse fibroblasts, counter-screen, dose response (AID 2010); assay type: functional, cell-based;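 further: cells exposed to compound for about 90 hours before reading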
BJ [19] = test: BJ-TERT-LT-ST fibroblast viability loss – cell-based, RAS-independent, luminescence, dose response (AID 1935); assay type: functional; settings: Homo sapiens;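 further: BJ fibroblasts immortalized with TERT plus LT and ST oncogenes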
[20] = HepG2 cell cytotoxicity, dose response, cytotoxicity control for non-replicating M. tuberculosis project (AID 489018); assay type: functional; settings: Mycobacterium tuberculosis
BJ [21] = test: BJ-TERT fibroblast viability loss – cell-based, RAS-independent, luminescence, dose response (AID 1933); assay type: functional; settings: Homo sapiens
[22] = Vero E6 cell cytotoxicity, dose response, cytotoxicity control for non-replicating M. tuberculosis project, secondary assay (AID 492998); assay type: functional, VeroE6; settings: Vero C1008
[23] = target: Eukaryotic translation initiation factor 4E (Mus musculus, UniProt P63073); test: blockers of eIF4G binding by eIF4E – biochemical, TR-FRET, dose response (AID 855); assay type: functional;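 further: potency for disrupting eIF4E binding to eIF4GI seen as loss of FRET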
[24] = THP-1 cell cytotoxicity, dose response, cytotoxicity control for non-replicating M. tuberculosis project (AID 489025); assay type: functional
[25] = MIN6 cell viability loss – mouse insulinoma, cytotoxicity control, dose response (AID 2122); assay type: functional;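 further: confirmatory high-throughput counterscreen run to flag cytotoxic compounds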
Beta-galactosidase = Beta-galactosidase (Escherichia coli, UniProt Q8VNN2); test: PubChem AID 485352; assay type: functional
Hexokinase HKDC1 = target: T5, Hexokinase HKDC1 (Homo sapiens, UniProt Q2TB90); test: activation of HKDC1 glucose phosphorylation – biochemical, W721R variant, dose response (AID 504730); assay type: functional
T5 sequence (Q2TB90 whole entry): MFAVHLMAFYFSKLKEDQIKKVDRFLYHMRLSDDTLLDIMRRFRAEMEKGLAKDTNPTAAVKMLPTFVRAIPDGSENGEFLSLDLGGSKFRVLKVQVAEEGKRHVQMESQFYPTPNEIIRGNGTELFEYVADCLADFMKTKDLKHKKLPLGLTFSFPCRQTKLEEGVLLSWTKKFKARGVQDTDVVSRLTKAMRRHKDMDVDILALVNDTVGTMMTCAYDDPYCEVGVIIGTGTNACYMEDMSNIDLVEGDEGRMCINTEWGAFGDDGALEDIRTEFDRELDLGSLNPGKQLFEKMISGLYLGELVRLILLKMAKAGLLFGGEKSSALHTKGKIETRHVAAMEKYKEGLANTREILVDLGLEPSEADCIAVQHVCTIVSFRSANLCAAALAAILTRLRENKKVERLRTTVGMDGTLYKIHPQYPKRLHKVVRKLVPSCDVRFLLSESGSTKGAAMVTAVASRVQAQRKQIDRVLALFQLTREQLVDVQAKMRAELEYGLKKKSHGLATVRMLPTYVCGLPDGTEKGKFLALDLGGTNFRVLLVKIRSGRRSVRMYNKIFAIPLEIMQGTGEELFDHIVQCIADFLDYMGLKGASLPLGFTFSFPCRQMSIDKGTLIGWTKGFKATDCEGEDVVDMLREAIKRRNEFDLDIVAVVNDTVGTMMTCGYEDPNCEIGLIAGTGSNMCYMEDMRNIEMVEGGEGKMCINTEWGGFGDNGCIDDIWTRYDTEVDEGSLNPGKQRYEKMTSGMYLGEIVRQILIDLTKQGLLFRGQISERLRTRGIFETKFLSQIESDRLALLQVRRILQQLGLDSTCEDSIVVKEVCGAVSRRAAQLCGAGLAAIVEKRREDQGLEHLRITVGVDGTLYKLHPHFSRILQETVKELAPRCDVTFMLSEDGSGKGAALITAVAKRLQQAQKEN

Hexokinase-1 = Hexokinase-1 (Homo sapiens, UniProt P19367); test: HK1 enzyme activation by HKDC1 hits – biochemical, selectivity assay for HKDC1 activator project, dose response (AID 504762); assay type: functional
[26] = target: T6, Type-1 angiotensin II receptor (Homo sapiens, UniProt P30556); test: antagonism of angiotensin II type 1 receptor – cell-based, uHTS hits, selectivity assay for APJ receptor antagonist project, dose response (AID 463214); assay type: functional;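 further: antagonist potency against angiotensin II stimulated AT1 response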
T6 sequence (P30556 whole entry): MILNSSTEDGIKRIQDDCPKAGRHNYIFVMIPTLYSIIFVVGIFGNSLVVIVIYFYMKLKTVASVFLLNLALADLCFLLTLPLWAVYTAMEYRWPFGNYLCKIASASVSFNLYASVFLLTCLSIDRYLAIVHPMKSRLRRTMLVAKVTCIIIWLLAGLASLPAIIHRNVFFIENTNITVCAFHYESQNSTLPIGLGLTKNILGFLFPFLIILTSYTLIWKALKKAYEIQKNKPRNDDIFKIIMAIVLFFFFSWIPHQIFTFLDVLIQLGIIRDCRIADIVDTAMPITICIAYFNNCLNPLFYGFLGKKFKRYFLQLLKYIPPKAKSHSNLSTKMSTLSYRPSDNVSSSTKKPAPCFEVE

[27] = decrease of insulin promoter-GFP reporter – imaging, high-content screening, mouse beta cells (AID 1628); assay type: functional; settings: MIN6

## O=c1c2ccccc2nc(COc2ccccc2)n1/N=C/c1cc([N+](=O)[O-])ccc1O
SUMO-activating enzyme [1]
  IC50: 32.1 µM (active)
INS1
  AC50: 3.74 µM (active)
Albumin
  IC50: > 94.1 µM (inactive)
SUMO-activating enzyme [2]
  IC50: 0.99 µM (active)
Streptococcus
  EC50: 4.65 µM (active)
[3]
  EC50: 5.71 µM (active)
Cells [4]
  EC50: 24.3 µM (active)
Cells [5]
  EC50: 22.8 µM (active)
[6]
  AC50: 10.2 µM (active)

## CC(=O)c1ccc2cccc3c2c1NC(C)=N3
Troponin, cardiac muscle
  EC50: 17.3 µM (inactive)
[7]
  IC50: 3.05 µM (active)
[8]
  IC50: > 100 µM (inactive)
[9]
  EC50: 6.57 µM (active)
[10]
  EC50: 9.79 µM (active)

## Cc1cc(N2CCCCC2)nc(NCc2ccccc2)n1
Ion channel NompC
  EC50: > 3.32 µM (inactive)
Mucolipin-3
  EC50: > 3.32 µM (active)
[11]
  AC50: 54.8 µM (active)
BJ [12]
  EC50: 21.4 µM (active)
[13]
  EC50: 25.9 µM (active)
[14]
  EC50: 2.04 µM (active)
[15]
  AC50: 4.01 µM (active)
Cells [16]
  IC50: 40.2 µM (active)
[17]
  AC50: 6.27 µM (active)
[18]
  EC50: > 60 µM (not active)
BJ [19]
  EC50: > 75 µM (inconclusive)
[20]
  CC50: > 20 µM (active)
BJ [21]
  EC50: 17.4 µM (active)
[22]
  CC50: > 20 µM (active)
[23]
  IC50: > 64 µM (inactive)
[24]
  CC50: 8.56 µM (active)

## Cc1ccc(N=Nc2ccc(O)c3ncccc23)cc1C
[25]
  IC50: 1.66 µM (active)
Beta-galactosidase
  EC50: > 40 µM (inactive)
Hexokinase HKDC1
  EC50: 21.7 µM (inactive)
[14]
  EC50: 1.13 µM (active)
Hexokinase-1
  EC50: > 80 µM (inactive)
[18]
  EC50: > 60 µM (inconclusive)
[26]
  IC50: 35.3 µM (not active)
[27]
  IC50: 2.41 µM (active)

Source: ChEMBL document CHEMBL1201862, “PubChem BioAssay data set” (2004)
